Test results taken from patent publication US20130004979A1, “GLYCOSYLTRANSFERASE REVERSIBILITY FOR SUGAR NUCLEOTIDE SYNTHESIS AND MICROSCALE SCANNING” (WISCONSIN ALUMNI RESEARCH FOUNDATION, priority 2010, published 2013).
In brackets after ≈: the same amount, converted by molar mass.

How the values were obtained:
OleD variant TDP-16 [1] = target: T1, OleD variant TDP-16 (Streptomyces antibioticus, UniProt Q53685, A242L/P67T/Q268V/S132F); assay: NDP screening with 2-chloro-4-nitrophenyl glucoside (9); assay type: biochemical; details: donor 9, TDP-16, NDP as acceptor
Procedure: Reactions were allowed to proceed for 5 hours, quenched with an equal volume of 40 mM phosphoric acid (adjusted to pH 6.5 with triethylamine) and heated for 30 seconds on a heat block. Following, samples were centrifuged at 10,000 g for 30 min at 0° C. and the supernatant removed for analysis. The clarified reaction mixtures were analyzed by analytical reverse-phase HPLC. HPLC was conducted with a Supelcosil LC18-T (3 μm, 150×4.6 mm) column (from Sigma-Aldrich St. Louis, Mo., USA) with a gradient of 0% B to 100% B over 20 min (A=40 mM phosphoric acid [adjusted to pH 6.5 with triethylamine]; B=10% MeOH in 40 mM phosphoric acid [adjusted to pH 6.5 with triethylamine]; flow rate=0.5 mL min-1) and detection monitored at 254 nm.

[2] = target: OleD variant P67T/S312F/A242L/Q268V (Streptomyces antibioticus, UniProt Q53685, A242L/P67T/Q268V/S132F); assay: Determination of equilibrium constants of the glucoside donor/UDP reaction; assay type: biochemical; details: with UDP, Tris-HCl 50 mM pH 8.5, 298K, relative to UDP-Glc (33a); calculated from Keq
Procedure: Equilibrium constants (Keq, pH8.5) were also determined for 1, 2, 4, 7, and 9 and utilized to calculate the corresponding Gibbs free energy according to equation (1).
ΔG°pH8.5=−RT ln(Keq,pH8.5)
Reactions contained 21 μM (200 μg) OleD variant P67T/S312F/A242L/Q268V, 1 mM UDP, and 1 mM β-D-glucopyranoside donor (1, 2, 4, 7, or 9) in Tris-HCl buffer (50 mM, pH 8.5) in a final total volume of 200 μl. Multiple time course evaluations were conducted to determine the time at which each reaction reached equilibrium (<2 min for 7, 9; <90 min for 1, 4; 200 min for 2). Following, each analysis was conducted in triplicate to the minimum observed time point for equilibrium and samples were processed and evaluated as described below to determine concentrations of UDP to 33a (UDP-α-D-glucose). […] Glucoside and aglycon concentrations were inferred from the determined concentrations of UDP and 33a.

OleD variant = OleD variant (Streptomyces antibioticus, UniProt Q53685, A242L/P67T/Q268V/S132F); assay: β-D-glucoside screening: reverse reaction forming UDP-/TDP-glucose; assay type: biochemical; details: in combination with OleD variant TDP-16
From the text: The availability of a GT capable of utilizing a wide array of both simple aromatic acceptors and sugar nucleotides set the stage for this systematic study. With the aid of a crystal structure (10), previous directed evolution and engineering of an inverting macrolide-inactivating GT from S. antibioticus (OleD) identified several highly permissive variants for both sugar nucleotides (14 known sugar substrates) and acceptors (>70 structurally diverse known substrates) in the context of the forward reaction (11-16). Utilizing the aglycons recognized in forward reactions as a template, a set of 32 putative ü-D-glucopyranosides donors were synthesized and tested against a series of OleD variants in reverse reactions for production of UDP-J-D-glucose (UDP-Glc, 33a) in the presence of UDP (FIG. 14a). The syntheses of these putative donors required 1-3 steps (37% average overall yield) and, in all but one case (19), provided the desired E-anomer exclusively. Of the 32 putative donors evaluated, 9 (1-9) led to UDP-Glc (33a) formation with all variants examined (FIG. 14b).
Reactions containing 2.1 μM (10 μg) of purified OleD variant, 1 mM of UDP or TDP, and 1 mM of β-D-glucopyranoside (1-32) in Tris-HCl (50 mM, pH 8.5) with a final volume of 100 μl were incubated at room temperature for 1 hour. Samples were frozen in a bath of dry ice and acetone and stored at −20° C. […]

[3] = Solubility of donor under kinetic assay conditions; assay type: physicochemical; details: 50 mM Tris-HCl buffer, aqueous buffer; 50 mM Tris-HCl (pH 8.5)
OleD variant TDP-16 [4] = target: T1, OleD variant TDP-16; assay: Single enzyme coupled colorimetric screen of putative aglycon acceptors (410 nm); assay type: biochemical; details: 0.5 mM 9, 0.5 mM acceptor, 5 μM UDP, TDP-16, 410 nm over 480 min
Procedure: Specifically, each 100 PI reaction in the 96-well plate contained the sugar donor 9 (0.5 mM), a putative aglycon acceptor (0.5 mM), a catalytic amount of UDP (5 3M) and TDP-16 (11 3M) and reaction progress was monitored at 410 nm over 480 min. […] Based upon this cumulative rapid analysis, […] (62-103) led to a positive response (designated as three standard deviations above the mean for control reactions), 37 of which (62-93, 96, 97, 99, 101, 103) were subsequently confirmed by HPLC and/or LC/MS to lead to products consistent with glucoside formation.
Reactions containing 10.5 μM (50 μg) OleD variant TDP-16, 5 μM of UDP, 0.5 mM final acceptor (58 [as a positive control] and 62-111), and 0.5 mM 2-chloro-4-nitrophenyl-β-D-glucoside (9) in Tris-HCl buffer (50 mM, pH 8.5) with a final volume of 100 μl were prepared in a 96 well flat bottom Bacti plate (0.4 mL well^−1; Nagle Nunc International, Rochester, N.Y., USA). Absorbance measurements were recorded every 2 min at 410 nm for 8 hours on a FLUOstar Optima plate reader (BMG, Durham, N.C., USA) with the plate shaken within the reader for 5 seconds before collection of each time point. Reactions containing final acceptor were run at n=1, control reactions lacking final acceptor were run at n=6, and control reactions lacking both final acceptor and UDP were run at n=3. […]

OleD variant TDP-16 [5] = target: T1, OleD variant TDP-16; assay: 2-chloro-4-nitrophenyl glycoside screening for NDP-sugar formation; assay type: biochemical
Procedure: Aliquots were removed at various time points, mixed with an equal volume of ddH2O, frozen in a bath of dry ice and acetone, and stored at −20° C. Following, samples were thawed at 4° C. and filtered through a MultiScreen Filter Plate (from Millipore, Billerica, Mass., USA) according to manufacturer's instructions. Samples were evaluated for formation of NDPsugar by analytical reverse-phase HPLC with a 250 mm×4.6 mm Gemini-NX 5μ C18 column (from Phenomenex, Torrance, Calif., USA) using a linear gradient of 0% to 50% CH3CN (solvent B) over 25 minutes (solvent A=50 mM PO4^−2, 5 mM tetrabutylammonium bisulfate, 2% acetonitrile [pH adjusted to 6.0 with KOH]; flow rate=1 ml min^−1; A254 nm).

T1 sequence (Q53685 other isoform, or with tags, fused parts or gaps P55A/P67T/R82V/R83E/T84P/S132F/A242L/Q268V): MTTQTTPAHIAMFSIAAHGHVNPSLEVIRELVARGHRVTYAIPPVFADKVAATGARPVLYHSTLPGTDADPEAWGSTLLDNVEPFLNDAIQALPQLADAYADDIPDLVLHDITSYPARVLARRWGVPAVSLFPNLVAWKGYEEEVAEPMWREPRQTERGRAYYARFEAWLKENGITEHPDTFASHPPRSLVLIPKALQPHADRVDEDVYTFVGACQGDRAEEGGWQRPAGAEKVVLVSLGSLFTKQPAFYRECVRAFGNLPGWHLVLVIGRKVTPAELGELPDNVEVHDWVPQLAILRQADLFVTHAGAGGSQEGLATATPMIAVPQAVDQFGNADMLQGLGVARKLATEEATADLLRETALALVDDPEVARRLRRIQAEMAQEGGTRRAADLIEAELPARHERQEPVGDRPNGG
OleD variant P67T/S312F/A242L/Q268V, sequence (Q53685 other isoform, or with tags, fused parts or gaps P55A/P67T/R82V/R83E/T84P/S132F/A242L/Q268V): as above
OleD variant, sequence (Q53685 other isoform, or with tags, fused parts or gaps P55A/P67T/R82V/R83E/T84P/S132F/A242L/Q268V): as above

## Nc1ncnc2c1ncn2[C@@H]1O[C@H](COP(=O)(O)OP(=O)(O)O)[C@@H](O)[C@H]1O [ADP]
OleD variant TDP-16 [1]
  NDP-sugar formation efficiency: much lower efficiency

## OCC1O[C@@H](Oc2ccccc2Cl)C(O)[C@@H](O)[C@@H]1O (stereo partly drawn) [Compound 4, 2-chlorophenyl-β-D-glucopyranoside]
[2]
  ΔG°pH8.5 of donor to UDP-Glc transformation: +2.55 kcal mol-1

## O=[N+]([O-])c1ccc(O[C@@H]2OC(CO)[C@@H](O)[C@H](O)C2O)c(Cl)c1 (stereo partly drawn) [Compound 9, 2-chloro-4-nitrophenyl-β-D-glucopyranoside]
[2]
  ΔG°pH8.5 of donor to UDP-Glc transformation: −2.78 kcal mol-1
OleD variant
  overall yields of UDP-Glc (33a) or TDP-Glc (33b): best overall yields
[3]
  solubility: ~25 mM (≈ 8390 µg/mL)

## O=c1c(-c2ccc(O)cc2)coc2cc(O)cc(O)c12 [Compound 62, genistein]
OleD variant TDP-16 [4]
  response in colorimetric screen (three standard deviations above the mean for control reactions): hits

## O=C(O)c1cn(C2CC2)c2cc(N3CCNCC3)c(F)cc2c1=O [Compound 92, ciprofloxacin]
OleD variant TDP-16 [4]
  response in colorimetric screen (three standard deviations above the mean for control reactions): hits

## Nc1nc2c(ncn2[C@@H]2O[C@H](COP(=O)(O)OP(=O)(O)O)[C@@H](O)[C@H]2O)c(=O)[nH]1 [GDP]
OleD variant TDP-16 [1]
  NDP-sugar formation efficiency: much lower efficiency

## O=[N+]([O-])c1ccc(O[C@H]2OC[C@@H](O)[C@H](O)[C@H]2O)c(Cl)c1 [α-anomer of 38]
OleD variant TDP-16 [5]
  turnover as donor substrate (anomer): no turnover
